Measured values as given in the supplement of paper PMC10307832.

Columns and labels:
Experiment in all cases: relative viability (nuclei count vs DMSO), 5 days (fraction); higher = more cells survive
[1] = compound: C/C(=N\NC(=S)N1CCC1)/C2=CC=CC=N2 + CC(=O)Nc1cccc(-n2c(=O)n(C3CC3)c(=O)c3c(Nc4ccc(I)cc4F)n(C)c(=O)c(C)c32)c1 [Trametinib] (partner 0.02 µM)
Outline: (§1)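 After 5 days of treatment, lung cancer cells in 1536-well plates were fixed and stained in a single step (final 0.05% Triton X-100, 1% formaldehyde, 1 ug/ml Hoechst) and their nuclei counted on 4× images. Treatment had been applied by pin tool the day after seeding as one drug alone or as a fixed anchor-drug dose with five library-drug doses (not always all listed) in √10 steps. Relative viability is the nuclei count of treated wells divided by that of vehicle wells, and values are medians of duplicate plates.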

[2] = compound: C/C(=N\NC(=S)N1CCC1)/C2=CC=CC=N2 + COc1cccc2cc(-c3nc([C@H]4CC[C@H](C(=O)O)CC4)n4ncnc(N)c34)[nH]c12 [OSI-027] (partner 0.5 µM)
Outline: as §1

[3] = compound: C/C(=N\NC(=S)N1CCC1)/C2=CC=CC=N2 + CS(=O)(=O)CCNCc1ccc(-c2ccc3ncnc(Nc4ccc(OCc5cccc(F)c5)c(Cl)c4)c3c2)o1 [Lapatinib] (partner 2 µM)
Outline: as §1

[4] = compound: C/C(=N\NC(=S)N1CCC1)/C2=CC=CC=N2 + C[C@]1(O)C[C@@H](c2nc(-c3ccc4ccc(-c5ccccc5)nc4c3)c3c(N)nccn32)C1 [Linsitinib] (partner 1 µM)
Outline: as §1

Cell Line | relative viability ([1]; first compound 0.05 µM) | relative viability ([1]; first compound 0.1581 µM) | relative viability ([1]; first compound 0.5 µM) | relative viability ([1]; first compound 1.581 µM) | relative viability ([1]; first compound 5 µM) | relative viability ([2]; first compound 0.05 µM) | relative viability ([2]; first compound 0.1581 µM) | relative viability ([2]; first compound 0.5 µM) | relative viability ([2]; first compound 1.581 µM) | relative viability ([2]; first compound 5 µM) | relative viability ([3]; first compound 0.05 µM) | relative viability ([3]; first compound 0.1581 µM) | relative viability ([3]; first compound 0.5 µM) | relative viability ([3]; first compound 1.581 µM) | relative viability ([3]; first compound 5 µM) | relative viability ([4]; first compound 0.05 µM) | relative viability ([4]; first compound 0.1581 µM) | relative viability ([4]; first compound 0.5 µM) | relative viability ([4]; first compound 1.581 µM) | relative viability ([4]; first compound 5 µM)
NCI-H23 | 0.119 | 0.137 | 0.121 | 0.0972 | 0.128 | 0.136 | 0.127 | 0.154 | 0.137 | 0.143 | 0.169 | 0.168 | 0.171 | 0.151 | 0.166 | 0.134 | 0.196 | 0.13 | 0.124 | 0.151
NCI-H322M | 0.451 | 0.45 | 0.424 | 0.43 | 0.423 | 0.325 | 0.351 | 0.321 | 0.288 | 0.337 | 0.258 | 0.281 | 0.222 | 0.243 | 0.301 | 0.291 | 0.876 | 0.197 | 0.245 | 0.319
NCI-H358 | 0.1 | 0.0969 | 0.116 | 0.0973 | 0.097 | 0.0802 | 0.0946 | 0.0796 | 0.0601 | 0.0821 | 0.233 | 0.247 | 0.244 | 0.193 | 0.199 | 0.179 | 0.196 | 0.163 | 0.125 | 0.181
NCI-H460 | 0.0177 | 0.0199 | 0.0221 | 0.0121 | 0.0173 | 0.0284 | 0.0249 | 0.0234 | 0.0201 | 0.0147 | 0.0117 | 0.0152 | 0.017 | 0.015 | 0.0086 | 0.0136 | 0.0148 | 0.0172 | 0.0108 | 0.005
NCI-H520 | 0.101 | 0.129 | 0.118 | 0.123 | 0.159 | 0.153 | 0.192 | 0.158 | 0.169 | 0.242 | 0.131 | 0.148 | 0.12 | 0.12 | 0.144 | 0.164 | 0.145 | 0.123 | 0.116 | 0.169
NCI-H596 | 0.613 | 0.296 | 0.293 | 0.201 | 0.239 | 0.259 | 0.253 | 0.281 | 0.226 | 0.263 | 0.339 | 0.293 | 0.221 | 0.228 | 0.299 | 0.912 | 0.344 | 0.251 | 0.208 | 0.257
NCI-H647 | 0.0951 | 0.0887 | 0.127 | 0.114 | 0.13 | 0.0818 | 0.107 | 0.109 | 0.117 | 0.0913 | 0.139 | 0.0972 | 0.11 | 0.0821 | 0.0828 | 0.148 | 0.103 | 0.159 | 0.0971 | 0.0901
NCI-H650 | 0.17 | 0.207 | 0.204 | 0.169 | 0.151 | 0.162 | 0.228 | 0.194 | 0.211 | 0.198 | 0.174 | 0.294 | 0.23 | 0.168 | 0.203 | 0.214 | 0.262 | 0.251 | 0.153 | 0.18
NCI-H661 | 0.208 | 0.263 | 0.26 | 0.224 | 0.213 | 0.243 | 0.208 | 0.169 | 0.188 | 0.19 | 0.187 | 0.184 | 0.2 | 0.201 | 0.198 | 0.186 | 0.218 | 0.191 | 0.196 | 0.212
NCI-H727 | 0.361 | 0.33 | 0.358 | 0.367 | 0.318 | 0.229 | 0.258 | 0.289 | 0.244 | 0.364 | 0.194 | 0.222 | 0.25 | 0.232 | 0.267 | 0.203 | 0.115 | 0.213 | 0.222 | 0.238
NCI-H838 | 0.156 | 0.167 | 0.157 | 0.11 | 0.136 | 0.167 | 0.179 | 0.19 | 0.129 | 0.142 | 0.185 | 0.186 | 0.212 | 0.149 | 0.164 | 0.241 | 0.224 | 0.198 | 0.183 | 0.143
NCI-H1355 | 0.22 | 0.191 | 0.136 | 0.176 | 0.17 | 0.201 | 0.213 | 0.208 | 0.18 | 0.178 | 0.203 | 0.238 | 0.205 | 0.167 | 0.18 | 0.259 | 0.632 | 0.193 | 0.182 | 0.181
NCI-H1395 | 0.425 | 0.388 | 0.327 | 0.381 | 0.389 | 0.291 | 0.388 | 0.31 | 0.29 | 0.364 | 0.314 | 0.424 | 0.355 | 0.315 | 0.412 | 0.374 | 0.336 | 0.307 | 0.353 | 0.36
NCI-H1437 | 0.23 | 0.241 | 0.194 | 0.16 | 0.208 | 0.19 | 0.174 | 0.174 | 0.135 | 0.106 | 0.127 | 0.128 | 0.109 | 0.0868 | 0.0855 | 0.114 | 0.122 | 0.103 | 0.0866 | 0.0787
NCI-H1651 | 0.209 | 0.156 | 0.137 | 0.102 | 0.0667 | 0.152 | 0.165 | 0.13 | 0.0837 | 0.093 | 0.117 | 0.119 | 0.131 | 0.0681 | 0.0861 | 0.131 | 0.126 | 0.122 | 0.0894 | 0.0655
NCI-H1666 | 0.545 | 0.558 | 0.495 | 0.467 | 0.5 | 0.396 | 0.41 | 0.383 | 0.354 | 0.358 | 0.229 | 0.27 | 0.273 | 0.198 | 0.228 | 0.213 | 0.244 | 0.231 | 0.22 | 0.231
NCI-H1734 | 0.153 | 0.154 | 0.122 | 0.137 | 0.116 | 0.167 | 0.163 | 0.179 | 0.116 | 0.118 | 0.162 | 0.141 | 0.15 | 0.115 | 0.12 | 0.141 | 0.183 | 0.16 | 0.142 | 0.131
NCI-H1755 | 0.551 | 0.734 | 0.254 | 0.284 | 0.298 | 0.292 | 0.288 | 0.287 | 0.273 | 0.228 | 0.249 | 0.173 | 0.195 | 0.205 | 0.191 | 0.528 | 0.959 | 0.194 | 0.22 | 0.215
NCI-H1792 | 0.415 | 0.101 | 0.0783 | 0.0869 | 0.0954 | 0.417 | 0.301 | 0.25 | 0.248 | 0.205 | 0.371 | 0.38 | 0.179 | 0.193 | 0.104 | 0.366 | 0.261 | 0.119 | 0.115 | 0.066
NCI-H1793 | 0.308 | 0.188 | 0.166 | 0.142 | 0.179 | 0.128 | 0.176 | 0.159 | 0.153 | 0.142 | 0.192 | 0.169 | 0.165 | 0.146 | 0.197 | 0.22 | 0.233 | 0.132 | 0.142 | 0.167
NCI-H1915 | 0.0702 | 0.0677 | 0.0851 | 0.0919 | 0.112 | 0.184 | 0.165 | 0.176 | 0.179 | 0.163 | 0.195 | 0.182 | 0.157 | 0.136 | 0.133 | 0.523 | 1.03 | 0.228 | 0.176 | 0.153
NCI-H1944 | 0.32 | 0.392 | 0.144 | 0.147 | 0.152 | 0.197 | 0.192 | 0.168 | 0.133 | 0.12 | 0.194 | 0.317 | 0.207 | 0.144 | 0.163 | 0.875 | 1.06 | 0.6 | 0.259 | 0.196
NCI-H1975 | 0.143 | 0.118 | 0.105 | 0.109 | 0.119 | 0.137 | 0.119 | 0.116 | 0.105 | 0.11 | 0.132 | 0.151 | 0.147 | 0.13 | 0.15 | 0.157 | 0.151 | 0.145 | 0.158 | 0.163
NCI-H1993 | 0.402 | 0.374 | 0.438 | 0.351 | 0.45 | 0.519 | 0.542 | 0.516 | 0.541 | 0.545 | 0.59 | 0.634 | 0.619 | 0.58 | 0.543 | 0.643 | 0.703 | 0.58 | 0.614 | 0.53
NCI-H2009 | 0.108 | 0.133 | 0.102 | 0.0932 | 0.111 | 0.0946 | 0.153 | 0.17 | 0.129 | 0.12 | 0.141 | 0.16 | 0.151 | 0.161 | 0.0978 | 0.139 | 0.163 | 0.154 | 0.165 | 0.138
NCI-H2023 | 0.0918 | 0.0896 | 0.0543 | 0.069 | 0.0829 | 0.0569 | 0.0687 | 0.0687 | 0.0508 | 0.0603 | 0.0813 | 0.0823 | 0.106 | 0.064 | 0.0792 | 0.1 | 0.0863 | 0.0724 | 0.0807 | 0.0886
